This note sets out measurements from paper PMC10031466, “The ROK kinase N-acetylglucosamine kinase uses a sequential random enzyme mechanism with successive conformational changes upon each substrate binding” (The Journal of Biological Chemistry, 2023).

The target in assay [1] is T1, N-acetylglucosamine kinase (PsNagK) (Plesiomonas shigelloides, UniProt R8APY9).
T1 construct: gene nagK; His-SUMO tagged P. shigelloides NagK (crystallization)
T1 sequence (R8APY9 1-303): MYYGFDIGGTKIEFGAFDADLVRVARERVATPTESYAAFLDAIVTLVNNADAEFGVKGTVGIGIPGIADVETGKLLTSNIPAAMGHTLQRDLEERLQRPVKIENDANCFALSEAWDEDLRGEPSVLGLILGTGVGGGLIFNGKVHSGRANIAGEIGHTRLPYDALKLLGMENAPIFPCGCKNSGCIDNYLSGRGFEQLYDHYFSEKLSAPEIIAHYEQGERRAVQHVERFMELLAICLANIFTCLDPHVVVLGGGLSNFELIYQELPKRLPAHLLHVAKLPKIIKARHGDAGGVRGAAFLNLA
Put plainly: crystal structures (binary 7PA1; ternary with GlcNAc 7P9P); isothermal differential scanning fluorimetry. It counts as binding. On the technique in general: DSF heats the sample and reads unfolding from a dye or from intrinsic fluorescence.

Assay [2] addresses T1, N-acetylglucosamine kinase (PsNagK). Put plainly: crystal structure; isothermal differential scanning fluorimetry. Type of assay: binding.

On to `Nc1ncnc2c1ncn2[C@@H]1O[C@H](COP(=O)(O)OP(=O)(O)NP(=O)(O)O)[C@@H](O)[C@H]1O` [AMP-PNP], for which, in assay [1], the dissociation constant Kd was determined as 2.2 ± 0.6 mM.

`CC(=O)N[C@@H]1[C@@H](O)[C@H](O)[C@@H](CO)O[C@@H]1O` [GlcNAc, N-acetyl-D-glucosamine] had a Kd in assay [2] of 0.23 ± 0.02 mM.

As usually defined, the Kd is the equilibrium constant for the complex coming apart.
